Test results as given in paper PMC12484723, “COOKIE-Pro: covalent inhibitor binding kinetics profiling on the proteome scale” (Nature Communications, 2025).

Experiments:
TEC kinase = target: T1, TEC kinase (Homo sapiens, UniProt P42680); assay: COOKIE-Pro competition chemoproteomics in permeabilized Ramos cells (kinact, KI); format: cell-based
T1 sequence (P42680 1-631): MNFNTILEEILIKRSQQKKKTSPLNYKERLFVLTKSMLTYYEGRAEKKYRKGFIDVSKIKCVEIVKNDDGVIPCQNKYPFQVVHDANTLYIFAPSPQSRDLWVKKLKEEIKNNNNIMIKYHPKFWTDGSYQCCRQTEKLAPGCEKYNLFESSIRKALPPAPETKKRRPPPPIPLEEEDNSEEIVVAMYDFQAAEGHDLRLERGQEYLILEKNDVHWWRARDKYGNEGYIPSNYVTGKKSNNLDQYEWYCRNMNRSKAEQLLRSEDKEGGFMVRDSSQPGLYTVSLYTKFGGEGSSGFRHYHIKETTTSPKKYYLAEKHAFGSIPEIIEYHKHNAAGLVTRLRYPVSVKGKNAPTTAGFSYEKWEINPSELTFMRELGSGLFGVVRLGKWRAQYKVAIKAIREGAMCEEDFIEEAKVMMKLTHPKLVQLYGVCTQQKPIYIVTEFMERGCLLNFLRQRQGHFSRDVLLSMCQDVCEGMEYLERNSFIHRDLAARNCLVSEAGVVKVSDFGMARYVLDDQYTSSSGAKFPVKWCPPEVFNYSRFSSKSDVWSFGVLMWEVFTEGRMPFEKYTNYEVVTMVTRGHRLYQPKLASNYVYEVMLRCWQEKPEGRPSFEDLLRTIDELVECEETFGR

BLK = BLK (Homo sapiens, UniProt P51451); assay: as above; format: cell-based
BLK, sequence (P51451 2-505): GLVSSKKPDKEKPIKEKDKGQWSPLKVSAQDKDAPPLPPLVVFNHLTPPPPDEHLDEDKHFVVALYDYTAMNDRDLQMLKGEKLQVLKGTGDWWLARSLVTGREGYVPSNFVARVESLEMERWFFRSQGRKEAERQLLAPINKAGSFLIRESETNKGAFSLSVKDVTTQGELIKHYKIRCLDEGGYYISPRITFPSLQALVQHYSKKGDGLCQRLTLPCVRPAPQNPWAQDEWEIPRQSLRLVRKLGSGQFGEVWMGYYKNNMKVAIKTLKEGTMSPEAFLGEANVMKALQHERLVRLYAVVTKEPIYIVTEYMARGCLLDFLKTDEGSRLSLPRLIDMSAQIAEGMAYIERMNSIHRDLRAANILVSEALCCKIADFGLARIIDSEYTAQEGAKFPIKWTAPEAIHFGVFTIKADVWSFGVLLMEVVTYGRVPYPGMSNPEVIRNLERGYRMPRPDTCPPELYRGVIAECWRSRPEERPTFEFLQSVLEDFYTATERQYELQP

KI (inactivation) (TEC kinase): 0.233 µM
KI (inactivation) (BLK): 0.028 µM
SMILES: C=CC(=O)N1CCC[C@@H](n2nc(-c3ccc(Oc4ccccc4)cc3)c3c(N)ncnc32)C1 [ibrutinib]
